Assay results from PMC11152041, “Tricarbonyl rhenium(I) complexes with 8-hydroxyquinolines: structural, chemical, antibacterial, and anticancer characteristics” (RSC Advances, 2024).
Read-outs that look alike come from different tables or passages of the source.

Assays:
[1] = tested on: E. coli ATCC25922; experiment: Broth microdilution MIC/MBC (ISO 20776-1); assay type: cell-based, Escherichia coli; conditions: for MBC: E. coli ATCC25922, >99.99% reduction of growth; for MIC: E. coli ATCC25922, MH II broth, 35 °C, 24 h
Method: (§1) Bacterial strains and cell lines were obtained from the American Type Culture Collection (ATCC).[59] […] Antimicrobial activity was tested in Müeller Hinton (MH) II broth (Becton Dickinson). For anticancer activity assay, the following reagents from Merk were used: 3-(4,5-dimethylthiazol-2-yl)-2,5-diphenyltetrazolium bromide (MTT), sodium dodecyl sulfate (SDS) and HCl. The solubilized formazan product was spectrophotometrically quantified in a Power Wave XS (Bio Tek, Winooski, VT, USA) microplate reader. The HL-60 and PC-3 cells were grown in RPMI-1640 medium with stable glutamine (Biowest) supplemented with 10% (v/v) of heat-inactivated fetal bovine serum (FBS, Biowest) and 1% (v/v) of antibiotic–antimycotic solution (Biowest). The SKOV-3 cells were grown in McCoy's 5A medium with L-glutamine (Biowest) supplemented with 10% (v/v) heat-inactivated FBS, and 1% (v/v) antibiotic–antimycotic solution. The MCF-7 cells were grown in Eagle's MEM (Minimal Essential Medium) medium with stable glutamine (Biowest), supplemented with 10% (v/v) heat-inactivated FBS 1% (v/v) MEM non-essential amino acids (Biowest), 1% (v/v) antibiotic–antimycotic solution, and 1 mM sodium pyruvate (Merck). The MCF-10A cells were grown in Ham's F-12K (Kaighn's) Medium with stable glutamine (Gibco) supplemented with 5% (v/v) heat-inactivated FBS, 1% (v/v) MEM non-essential amino acids, 1% (v/v) antibiotic–antimycotic solution, 5 μg mL^−1 insulin, 0.04 μg mL^−1 hydrocortisone (Merck), and 15 ng mL^−1 human Epidermal Growth Factor (hEGF, PeproTech).
(§2) The in vitro antibacterial activity was determined according to ISO 20776-1.[88] Among the tested microorganisms were Gram-negative rods, E. coli ATCC25922 and P. aeruginosa ATCC27853, and Gram-positive cocci, S. aureus ATCC29213 and E. faecalis ATCC29212. The selected bacterial species represented the most common etiologic agents of human infections and are used for quality control of antimicrobial susceptibility testing.[89] The test procedure included the determination of MICs and MBCs of complexes and their free ligands. MIC and MBC determinations of ciprofloxacin, as the reference antibiotic, were also performed. All compounds were dissolved in DMSO to reach the maximum 512 mg L^−1 concentration. […] The assay consisted of preparing 2-fold dilutions of the substances in a liquid growth medium MH II and inoculating them with a standardized suspension of microorganisms at a McFarland density of 0.5 (≈10^8 CFU mL^−1). The culture plates were incubated at 35 °C for 24 h. The lowest concentration of the compound inhibiting visible bacterial growth was specified as MIC, and the concentration that reduced bacterial growth by >99.99% after counting live bacteria on the plates compared to the positive control was defined as MBC.

[2] = Stability of the complexes in DMSO by NMR (exchange of pyrazole ligand with DMSO); assay type: physicochemical; conditions: after two days
Method: In 3, after two days, an equilibrium between the Hdmpz and DMSO complexes stabilizes at 77% to 23% ratio (Fig. S34 ^†). Complex 3 can be recovered from the mixture by DMSO evaporation and the complex with water is even weaker. In the case of 3-phenylpyrazole in 8, the complex amount drops to 50% immediately after dissolving and after 24 h reaches ratio of 39% to 61% (Fig. S35 ^†).
The chemicals were purchased from Sigma-Aldrich and only 5-chloro-8-hydroxyquinoline from TCI. Their purity was 98 or 99% (for 3-phenylpyrazole – 97%). Anhydrous solvents with HPLC grade (≥99.9%) were applied. All chemicals were used without further purification. Elemental analysis was performed on an Elementar Vario EL III analyzer. UV-Vis spectra of methanol solutions were recorded in the 200–900 nm range with a Jasco V-750 spectrometer. Infrared absorption spectra in the 400–4000 cm^−1 range were recorded with a Thermo Scientific Nicolet iS10 FT-IR spectrometer using KBr pellets. ^1H and ^13C NMR spectra of DMSO-d6 or CDCl3 solutions were recorded at 25 °C on a Varian VNMRS-500 or Varian 400MR spectrometer operated at 499.8 and 400 MHz, respectively. The NMR spectra were referenced to the internal reference of tetramethylsilane (TMS).

[3] = tested on: MCF-7 cells; experiment: MTT cytotoxicity assay; assay type: cell-based, human; conditions: MTT, read-out: IC50 ± SD
Method: (§3) The cytotoxicities for studied compounds were evaluated against leukemia cells (HL-60), as well as ovarian (SKOV-3), prostate (PC-3), and breast (MCF-7) cancer cell lines. The potential selectivity of these compounds towards cancer cells was assessed by determination of their cytotoxicities towards breast non-cancerous cells (MCF-10A). For comparison, cisplatin was added to the cytotoxicity assays.
as §1
(§4) The cells were cultured in 96-well plates and incubated with the tested compound for 24 h and 48 h. All experiments were performed in exponentially growing cultures. The 0.03 M solutions of the compounds in DMSO were appropriately diluted using culture media. The maximal final concentration of DMSO in each well was 0.1%. The cytotoxicity of the compounds was measured by determining cell viability with a colorimetric test based on 3-(4,5-dimethylthiazol-2-yl)-2,5-diphenyltetrazolium bromide (MTT). MTT stock solution was added to each well to a final concentration of 0.5 mg mL^−1 and incubated for 4 h at 37 °C; following formazan crystals were dissolved by the addition of sodium dodecyl sulfate (SDS) solution (10% SDS in 0.001 M HCl). MTT and SDS were added directly to the cell culture. The compound's IC50 values (concentration required to reduce the viability of cells by 50% compared with the control cells) were calculated from the data obtained with the MTT assay.

[4] = tested on: PC-3 cells; experiment: MTT cytotoxicity assay; assay type: cell-based, human; conditions: MTT, read-out: IC50 ± SD
Method: as §3, §1, §4

[5] = tested on: SKOV-3 cells; experiment: MTT cytotoxicity assay; assay type: cell-based, human; conditions: MTT, read-out: IC50 ± SD
Method: as §3, §1, §4

[6] = tested on: HL-60 cells; experiment: MTT cytotoxicity assay; assay type: cell-based, human; conditions: MTT, read-out: IC50 ± SD
Method: as §3, §1, §4

[7] = tested on: E. faecalis ATCC29212; experiment: Broth microdilution MIC/MBC (ISO 20776-1); assay type: cell-based, Enterococcus faecalis; conditions: for MBC: E. faecalis ATCC29212, >99.99% reduction of growth; for MIC: E. faecalis ATCC29212, MH II broth, 35 °C, 24 h
Method: as §1, §2

[8] = tested on: MCF-10A cells; experiment: MTT cytotoxicity assay
Method: as §3, §1, §4

[9] = tested on: S. aureus ATCC29213; experiment: Broth microdilution MIC/MBC (ISO 20776-1); assay type: cell-based, Staphylococcus aureus; conditions: for MBC: S. aureus ATCC29213, >99.99% reduction of growth; for MIC: S. aureus ATCC29213, MH II broth, 35 °C, 24 h
Method: as §1, §2

[10] = tested on: P. aeruginosa ATCC27853; experiment: Broth microdilution MIC/MBC (ISO 20776-1); assay type: cell-based, Pseudomonas aeruginosa; conditions: for MBC: P. aeruginosa ATCC27853, >99.99% reduction of growth; for MIC: P. aeruginosa ATCC27853, MH II broth, 35 °C, 24 h
Method: as §1, §2

[11] = read-out: IC50 ± SD, MCF-10A (non-cancerous), 24 h, MTT, * precipitation of the complex
[12] = read-out: IC50 ± SD, MCF-10A (non-cancerous), 48 h, MTT, * precipitation of the complex

Molecule	MBC [1]	MIC [1]	IC50 ([3]; MCF-7, 24 h)	IC50 ([3]; MCF-7, 48 h)	IC50 ([4]; PC-3, 24 h)	IC50 ([4]; PC-3, 48 h)	IC50 ([5]; SKOV-3, 24 h)	IC50 ([5]; SKOV-3, 48 h)	IC50 ([6]; HL-60, 24 h)	IC50 ([6]; HL-60, 48 h)	MBC [7]	MIC [7]	IC50 [8, 11]	IC50 [8, 12]	MBC [9]	MIC [9]	MBC [10]	MIC [10]	further results
Cc1cc(C)[nH]n1.[C-]#[O+].[C-]#[O+].[C-]#[O+].[Re][O]c1cccc2cccnc12 [complex 3, [Re(CO)3(Q)Hdmpz]]	>512/>512 mg L^−1	>512/>512 mg L^−1	19 ± 2 µM	29 ± 5 µM	14 ± 2 µM	16 ± 2 µM	32 ± 7 µM	31 ± 7 µM	7 ± 2 µM	6 ± 1 µM	512 mg/L	128 mg/L	> 100 µM	> 100 µM	512/>512 mg L^−1	512/>512 mg L^−1	>512/>512 mg L^−1	>512/>512 mg L^−1	share of the DMSO complex at equilibrium [2]: 23%; share of the Hdmpz complex at equilibrium with the DMSO complex [2]: 77%; IC50 / activity on normal cells ([8]; MCF-10A, incubation time not given): no activity; IC50 ([8]; read-out: IC50 / activity on normal cells, MCF-10A, incubation time not given): > 100 µM
Clc1ccc([O][Re])c2ncccc12.[C-]#[O+].[C-]#[O+].[C-]#[O+].c1c[nH]cn1 [complex 9, [Re(CO)3(ClQ)Him]]	256/256 mg L^−1	256/256 mg L^−1	58 ± 7 µM	47 ± 6 µM	29 ± 4 µM	22 ± 3 µM	32 ± 5 µM	28 ± 4 µM	11 ± 1 µM	8 ± 2 µM	> 512 mg/L	64 mg/L	42 ± 2 µM	24 ± 1 µM	>512/>512 mg L^−1	>512/>512 mg L^−1	> 512 mg/L	256 mg/L	
Cc1cc(C)[nH]n1.Clc1ccc([O][Re])c2ncccc12.[C-]#[O+].[C-]#[O+].[C-]#[O+] [complex 11, [Re(CO)3(ClQ)Hdmpz]]	512/>512 mg L^−1	512/>512 mg L^−1	18 ± 5 µM	25 ± 3 µM	18 ± 1 µM	24 ± 4 µM	40 ± 6 µM	32 ± 7 µM	5 ± 1 µM	2.8 ± 0.4 µM	64/64 mg L^−1	64/64 mg L^−1	24 ± 3 µM	10 ± 1 µM	256 mg/L	64 mg/L	>512/>512 mg L^−1	>512/>512 mg L^−1	
Clc1ccc([O][Re])c2ncccc12.[C-]#[O+].[C-]#[O+].[C-]#[O+].c1ccc(-c2ccn[nH]2)cc1 [complex 12, [Re(CO)3(ClQ)HPhpz]]	>512/>512 mg L^−1	>512/>512 mg L^−1	29 ± 3 µM	25 ± 4 µM	41 ± 8 µM	23 ± 4 µM	> 100 µM	78 ± 12 µM	2 ± 1 µM	1.5 ± 0.4 µM	> 512 mg/L	16 mg/L	34 ± 3 µM	14 ± 1 µM	> 512 mg/L	128 mg/L	>512/>512 mg L^−1	>512/>512 mg L^−1	
[Re(CO)3(ClQ)MeHim]·CH3CN [complex 10]	512/>512 mg L^−1	512/>512 mg L^−1	54 ± 4 µM	53 ± 4 µM	23 ± 2 µM	23 ± 2 µM	34 ± 5 µM	32 ± 7 µM	5 ± 1 µM	7 ± 1 µM	> 512 mg/L	4 mg/L	15 ± 1 µM	12 ± 1 µM	> 512 mg/L	64 mg/L	512/>512 mg L^−1	512/>512 mg L^−1	
